Marks after values point to notes of the source that are not given here.
Test system: patients with chronic hepatitis C who had developed anemia due to ribavirin/IFN α combination therapy
Assay type: in vivo, human
Details: average of 6 cases; p < 0.05 vs. before EPA administration (10.8 g/dL)
Description: After the onset of anemia, each patient received 600 mg of EPA-E (trade name: Epadel, manufactured by Mochida Pharmaceutical Co., Ltd.) three times a day by oral administration every after meal for 2 months. Depending on the disease cases, the time of starting the administration of EPA-E varied within the range from 1 to 4 months after the start of administration of ribavirin/IFN α. In the ribavirin/IFN α combination therapy, ribavirin (trade name: Rebetol, manufactured by Schering-Plough Corporation) was orally administered to each patient of over 60 kg in body weight at a dose of 400 mg every after morning meal and every after evening meal as well, and to each patient of 60 kg or less at a dose of 200 mg every after morning meal and 400 mg every after evening meal. Simultaneously, 6 million IU a day of IFN α-2b (trade name: Intron A, manufactured by Schering-Plough Corporation) was intramuscularly administered everyday for two weeks, followed by intermittent administration of three times a week for 22 weeks.

CC/C=C\C/C=C\C/C=C\C/C=C\C/C=C\CCCC(=O)OCC [EPA, eicosapentaenoic acid ethyl ester]
Hemoglobin level, average, after EPA administration for one month: 11.4* g/dL
Hemoglobin level, average, after EPA administration for two months: 11.5* g/dL

Source: patent publication US20060088502A1, “Drug for reducing side effects in ribavirin interferon combination therapy” (priority 2003, published 2006)
